Test results reported in patent US20240218022A1, “ANTI-VISTA MACROCYCLIC PEPTIDES AND COMPOSITIONS” (BRISTOL-MYERS SQUIBB COMPANY, priority 2022, published 2024).
Positions of bridges follow the written chain, without caps; N, C: chain ends. Non-standard residues stand in square brackets, D forms with d. Residues, ends and D or L forms follow the SMILES beside them. 2Nal = N[C@@H](Cc1ccc2ccccc2c1)C(=O)O; Ahp(2) = CCCCC[C@H](N)C(=O)O; NHexGly = CCCCCCNCC(=O)O; Nle = CCCC[C@H](N)C(=O)O; Orn = NCCC[C@H](N)C(=O)O; Dab = NCC[C@H](N)C(=O)O; Nva = CCC[C@H](N)C(=O)O; Dap = NC[C@H](N)C(=O)O

Biological target: T1, mouse VISTA (mVISTA) (Mus musculus, UniProt Q9D659)
T1 construct: expressed in transfected cells; host or cells: Human embryonic kidney 293T cells
T1 sequence (Q9D659 33-308): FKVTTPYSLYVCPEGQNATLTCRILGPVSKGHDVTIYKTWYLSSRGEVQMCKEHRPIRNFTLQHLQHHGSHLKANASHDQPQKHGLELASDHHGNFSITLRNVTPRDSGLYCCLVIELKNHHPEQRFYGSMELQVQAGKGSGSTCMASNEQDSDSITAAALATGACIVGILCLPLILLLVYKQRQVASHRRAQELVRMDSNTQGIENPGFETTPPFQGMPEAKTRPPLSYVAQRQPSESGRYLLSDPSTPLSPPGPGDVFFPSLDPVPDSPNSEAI
Assay: Cell-Based Binding High-Content Assay For mVISTA (HC CBA mVISTA)
Settings: 293T cells expressing mouse VISTA; competition with biotinylated peptide (2 nM); read-out: HC CBA mVISTA IC50
Outline: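 Read-out: Alexa 647–streptavidin signal imaged on fixed, Hoechst-stained mVISTA-293T cells, with IC50 taken from a four-parameter logistic curve. Compounds competed with 2 nM biotinylated peptide for 30 min at room temperature, tested under both no-wash and wash (1 h compound, media exchange, 1 h) formats.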

Structure (SMILES) | IC50
CCCCCCN1CC(=O)N[C@@H](Cc2ccc(O)cc2)C(=O)N[C@@H](CC(C)C)C(=O)NCC(=O)N[C@@H](CCCNC(=N)N)C(=O)N[C@@H](Cc2ccc(O)cc2)C(=O)N[C@@H](CCCCC)C(=O)N2CCC[C@H]2C(=O)N[C@@H](C(C)C)C(=O)N[C@@H](CO)C(=O)N[C@H](C(=O)NCC(N)=O)CSCC(=O)N[C@@H](Cc2ccccc2)C(=O)N[C@@H](Cc2ccc(O)cc2)C(=O)N[C@@H](CC(=O)O)C1=O [Example 1094] ({CH2CO}-FYD[NHexGly]YLGRY[Ahp(2)]PVSCG-NH2; thioether N-14) | 34.9 nM
CCCCCCN1CC(=O)N[C@@H](Cc2ccc(O)cc2)C(=O)N[C@@H](CC(C)C)C(=O)NCC(=O)N[C@@H](CCCNC(=N)N)C(=O)N[C@@H](Cc2ccc(O)cc2)C(=O)N[C@@H](CCCCC)C(=O)N2CCC[C@H]2C(=O)N[C@@H](C(C)C)C(=O)N[C@@H](CO)C(=O)N[C@H](C(=O)NCC(=O)O)CSCC(=O)N[C@@H](Cc2ccccc2)C(=O)N[C@@H](Cc2ccc(O)cc2)C(=O)N[C@@H](CC(=O)O)C1=O [Example 1095] ({CH2CO}-FYD[NHexGly]YLGRY[Ahp(2)]PVSCG-OH; thioether N-14) | 17.4 nM
CCCCCCN1CC(=O)N[C@@H](Cc2ccc(O)cc2)C(=O)N[C@@H](CC(C)C)C(=O)NCC(=O)N[C@@H](CCCNC(=N)N)C(=O)N[C@@H](Cc2ccc(O)cc2)C(=O)N[C@@H](CCCCC)C(=O)N2CCC[C@H]2C(=O)N[C@@H](C(C)C)C(=O)N[C@@H](CC(=O)O)C(=O)N[C@H](C(=O)NCC(N)=O)CSCC(=O)N[C@@H](Cc2ccccc2)C(=O)N[C@@H](Cc2ccc(O)cc2)C(=O)N[C@@H](CC(=O)O)C1=O [Example 1096] ({CH2CO}-FYD[NHexGly]YLGRY[Ahp(2)]PVDCG-NH2; thioether N-14) | 15.5 nM
CCCCCCN1CC(=O)N[C@@H](Cc2ccc(O)cc2)C(=O)N[C@@H](CC(C)C)C(=O)NCC(=O)N[C@@H](CCCNC(=N)N)C(=O)N[C@@H](Cc2ccc(O)cc2)C(=O)N[C@@H](CCCCC)C(=O)N2CCC[C@H]2C(=O)N[C@@H](C(C)C)C(=O)N[C@@H](C(C)C)C(=O)N[C@H](C(=O)NCC(=O)O)CSCC(=O)N[C@@H](Cc2ccccc2)C(=O)N[C@@H](Cc2ccc(O)cc2)C(=O)N[C@@H](CC(=O)O)C1=O [Example 1097] ({CH2CO}-FYD[NHexGly]YLGRY[Ahp(2)]PVVCG-OH; thioether N-14) | 18 nM
CCCCCCN1CC(=O)N[C@@H](Cc2ccc(O)cc2)C(=O)N[C@@H](CCCCC)C(=O)N[C@@H](CC(N)=O)C(=O)N[C@@H](CCCNC(=N)N)C(=O)N[C@@H](Cc2c[nH]c3ccccc23)C(=O)N[C@@H](CCCCC)C(=O)N2CCC[C@H]2C(=O)N[C@@H](C(C)C)C(=O)N[C@@H](CO)C(=O)N[C@H](C(=O)NCC(=O)O)CSCC(=O)N[C@@H](Cc2ccccc2)C(=O)N[C@@H](Cc2ccc(O)cc2)C(=O)N[C@@H](CC(=O)O)C1=O [Example 1098] ({CH2CO}-FYD[NHexGly]Y[Ahp(2)]NRW[Ahp(2)]PVSCG-OH; thioether N-14) | 14.7 nM
CCCCCCN1CC(=O)N[C@@H](Cc2ccc(O)cc2)C(=O)N[C@@H](CCCC)C(=O)NCC(=O)N[C@@H](CCCNC(=N)N)C(=O)N[C@@H](CC(C)C)C(=O)N[C@@H](CCCCC)C(=O)N2CCC[C@H]2C(=O)N[C@@H](C(C)C)C(=O)N2CCC[C@H]2C(=O)N[C@H](C(=O)NCC(=O)O)CSCC(=O)N[C@@H](Cc2ccccc2)C(=O)N[C@@H](Cc2ccc(O)cc2)C(=O)N[C@@H](CC(=O)O)C1=O [Example 1099] ({CH2CO}-FYD[NHexGly]Y[Nle]GRL[Ahp(2)]PVPCG-OH; thioether N-14) | 21.6 nM
CCCCCCN1CC(=O)N[C@@H](Cc2ccc(O)cc2)C(=O)N[C@@H](CCCCC)C(=O)NCC(=O)N[C@@H](CCCNC(=N)N)C(=O)N[C@@H](CC(C)C)C(=O)N[C@@H](CCCCC)C(=O)N2CCC[C@H]2C(=O)N[C@@H](C(C)C)C(=O)N2CCC[C@H]2C(=O)N[C@H](C(=O)NCC(N)=O)CSCC(=O)N[C@@H](Cc2ccccc2)C(=O)N[C@@H](Cc2ccc(O)cc2)C(=O)N[C@@H](CC(=O)O)C1=O [Example 1100] ({CH2CO}-FYD[NHexGly]Y[Ahp(2)]GRL[Ahp(2)]PVPCG-NH2; thioether N-14) | 17.6 nM

Further lines, results first:

IC50 | Structure (SMILES)
25.7 nM | CCCCCCN1CC(=O)N[C@@H](Cc2ccc(O)cc2)C(=O)N[C@@H](CCC)C(=O)NCC(=O)N[C@@H](CCCNC(=N)N)C(=O)N[C@@H](CC(C)C)C(=O)N[C@@H](CCCCC)C(=O)N2CCC[C@H]2C(=O)N[C@@H](C(C)C)C(=O)N2CCC[C@H]2C(=O)N[C@H](C(=O)NCC(N)=O)CSCC(=O)N[C@@H](Cc2ccccc2)C(=O)N[C@@H](Cc2ccc(O)cc2)C(=O)N[C@@H](CC(=O)O)C1=O [Example 1102] ({CH2CO}-FYD[NHexGly]Y[Nva]GRL[Ahp(2)]PVPCG-NH2; thioether N-14)
39.1 nM | CCCCCCN1CC(=O)N[C@@H](Cc2ccc(O)cc2)C(=O)N[C@@H](C(C)C)C(=O)NCC(=O)N[C@@H](CCCNC(=N)N)C(=O)N[C@@H](CC(C)C)C(=O)N[C@@H](CCCCC)C(=O)N2CCC[C@H]2C(=O)N[C@@H](C(C)C)C(=O)N2CCC[C@H]2C(=O)N[C@H](C(=O)NCC(=O)O)CSCC(=O)N[C@@H](Cc2ccccc2)C(=O)N[C@@H](Cc2ccc(O)cc2)C(=O)N[C@@H](CC(=O)O)C1=O [Example 1109] ({CH2CO}-FYD[NHexGly]YVGRL[Ahp(2)]PVPCG-OH; thioether N-14)
17.2 nM | CCCCCCN1CC(=O)N[C@@H](Cc2ccc(O)cc2)C(=O)N[C@@H](C(C)C)C(=O)NCC(=O)N[C@@H](CCCNC(=N)N)C(=O)N[C@@H](CC(C)C)C(=O)N[C@@H](CCCCC)C(=O)N2CCC[C@H]2C(=O)N[C@@H](C(C)C)C(=O)N[C@@H](CC(=O)O)C(=O)N[C@H](C(=O)N[C@@H](CO)C(=O)N[C@@H](CCCN)C(=O)N[C@@H](CC(N)=O)C(=O)O)CSCC(=O)N[C@@H](Cc2ccc3ccccc3c2)C(=O)N[C@@H](Cc2ccc(O)cc2)C(=O)N[C@@H](CC(=O)O)C1=O [Example 1159] ({CH2CO}-[2Nal]YD[NHexGly]YVGRL[Ahp(2)]PVDCS[Orn]N-OH; thioether N-14)
37.1 nM | CCCCCCN1CC(=O)N[C@@H](Cc2ccc(O)cc2)C(=O)N[C@@H](C(C)C)C(=O)NCC(=O)N[C@@H](CCCNC(=N)N)C(=O)N[C@@H](CC(C)C)C(=O)N[C@@H](CCCCC)C(=O)N2CCC[C@H]2C(=O)N[C@@H](C(C)C)C(=O)N[C@@H](CC(=O)O)C(=O)N[C@H](C(=O)N[C@@H](CO)C(=O)N[C@@H](CCCN)C(=O)N[C@@H](CCC(N)=O)C(=O)O)CSCC(=O)N[C@@H](Cc2ccc3ccccc3c2)C(=O)N[C@@H](Cc2ccc(O)cc2)C(=O)N[C@@H](CC(=O)O)C1=O [Example 1160] ({CH2CO}-[2Nal]YD[NHexGly]YVGRL[Ahp(2)]PVDCS[Orn]Q-OH; thioether N-14)
22.7 nM | CCCCCCN1CC(=O)N[C@@H](Cc2ccc(O)cc2)C(=O)N[C@@H](C(C)C)C(=O)NCC(=O)N[C@@H](CCCNC(=N)N)C(=O)N[C@@H](CC(C)C)C(=O)N[C@@H](CCCCC)C(=O)N2CCC[C@H]2C(=O)N[C@@H](C(C)C)C(=O)N[C@@H](CC(=O)O)C(=O)N[C@H](C(=O)N[C@@H](CO)C(=O)N[C@@H](CN)C(=O)N[C@@H](CC(N)=O)C(=O)O)CSCC(=O)N[C@@H](Cc2ccc3ccccc3c2)C(=O)N[C@@H](Cc2ccc(O)cc2)C(=O)N[C@@H](CC(=O)O)C1=O [Example 1161] ({CH2CO}-[2Nal]YD[NHexGly]YVGRL[Ahp(2)]PVDCS[Dap]N-OH; thioether N-14)
35.3 nM | CCCCCCN1CC(=O)N[C@@H](Cc2ccc(O)cc2)C(=O)N[C@@H](C(C)C)C(=O)NCC(=O)N[C@@H](CCCNC(=N)N)C(=O)N[C@@H](CC(C)C)C(=O)N[C@@H](CCCCC)C(=O)N2CCC[C@H]2C(=O)N[C@@H](C(C)C)C(=O)N[C@@H](CC(=O)O)C(=O)N[C@H](C(=O)N[C@@H](CO)C(=O)N[C@@H](CN)C(=O)N[C@@H](CCC(N)=O)C(=O)O)CSCC(=O)N[C@@H](Cc2ccc3ccccc3c2)C(=O)N[C@@H](Cc2ccc(O)cc2)C(=O)N[C@@H](CC(=O)O)C1=O [Example 1162] ({CH2CO}-[2Nal]YD[NHexGly]YVGRL[Ahp(2)]PVDCS[Dap]Q-OH; thioether N-14)
22.6 nM | CCCCCCN1CC(=O)N[C@@H](Cc2ccc(O)cc2)C(=O)N[C@@H](C(C)C)C(=O)NCC(=O)N[C@@H](CCCNC(=N)N)C(=O)N[C@@H](CC(C)C)C(=O)N[C@@H](CCCCC)C(=O)N2CCC[C@H]2C(=O)N[C@@H](C(C)C)C(=O)N[C@@H](CC(=O)O)C(=O)N[C@H](C(=O)N[C@@H](CO)C(=O)N[C@@H](CCCCN)C(=O)N[C@@H](CC(N)=O)C(=O)O)CSCC(=O)N[C@@H](Cc2ccc3ccccc3c2)C(=O)N[C@@H](Cc2ccc(O)cc2)C(=O)N[C@@H](CC(=O)O)C1=O [Example 1163] ({CH2CO}-[2Nal]YD[NHexGly]YVGRL[Ahp(2)]PVDCSKN-OH; thioether N-14)
9.8 nM | CCCCCCN1CC(=O)N[C@@H](Cc2ccc(O)cc2)C(=O)N[C@@H](C(C)C)C(=O)NCC(=O)N[C@@H](CCCNC(=N)N)C(=O)N[C@@H](CC(C)C)C(=O)N[C@@H](CCCCC)C(=O)N2CCC[C@H]2C(=O)N[C@@H](C(C)C)C(=O)N[C@@H](CC(=O)O)C(=O)N[C@H](C(=O)N[C@@H](CO)C(=O)N[C@@H](CCN)C(=O)N[C@@H](CC(N)=O)C(=O)O)CSCC(=O)N[C@@H](Cc2ccc3ccccc3c2)C(=O)N[C@@H](Cc2ccc(O)cc2)C(=O)N[C@@H](CC(=O)O)C1=O [Example 1164] ({CH2CO}-[2Nal]YD[NHexGly]YVGRL[Ahp(2)]PVDCS[Dab]N-OH; thioether N-14)
